Test results: patent US8834843B2, “Imaging method” (GE Healthcare Limited, priority 2007, dated 2014)
Numbered stars: 1 amine (or outer) side, 2 acyl side, 3 side chain; on linkers, the order of the positions; unused ones are H or OH. Bridge positions count the residues as written; N and C are the ends. Side chains are listed from the residue outwards. Peptide text beside a SMILES is read from it. * marks the point of attachment. X1 = C/C(=N\O)C(C)(C)NCCC(CCNC(C)(C)/C(C)=N/O)CCN*; Glutaryl = O=C(CCCC(=O)[*:2])[*:1]; X2 = NC(=O)COCC(=O)NCCOCCOCCOCCN*

Assays:
[1] = molecular target: EA-Hy926 membranes; test: Competitive binding assay with 125I-echistatin on EA-Hy926 membranes; parameters: species or system human; conditions: cold compound vs 125I-echistatin, 1 hour at 37° C.; read-out: Ki in the EA-Hy926 membrane assay
Method: The inhibition constant of Compound 6 was measured using a previously-described membrane binding assay (Indrevoll et al, Bioorg & Med Chem Lett, 2006, 16, 6190-6193).
In brief, membranes from the human endothelial adenocarcinoma cell line EA-Hy926 were prepared and the Kd calculated for the purified membrane fraction. A competitive binding assay was then established to measure inhibition constants for cold Compound 6. ^125I-echistatin was used as the labelled ligand and cold echistatin as a reference standard.
A total of sixteen dilutions of cold test compound (either cold echistatin or cold Compound 6) were prepared and mixed with a combination of ^125I-echistatin and membrane prior to incubation for 1 hour at 37° C. Following several washes, the bound material was harvested on a filter using a Skatron micro harvester. The filterspots were finally excised and counted in a Packard γ-counter.
The inhibition constants for Compound 3 and Compound 8 were determined using the method described in Example 1. FIG. 3 illustrates binding of ^125I-echistatin versus cold Compound 3, Compound 8 and echistatin on EA-Hy926 membranes.

[2] = system: Integrins on Stellate Cell Membranes; test: Binding to integrins on stellate cell membranes (125I-echistatin competition); parameters: species or system rat; conditions: cold compound vs 125I-echistatin, 37° C. for 60 min; read-out: Ki in the activated stellate cell membrane assay
Method: An activated rat liver stellate cell line (immortalized) was a kind gift from Professor Trond Berg at University of Oslo. The cells were grown in 150 mm culture flasks to confluence in Dulbeccos modified Eagels medium containing 10% FBS, glutamine and Penicillin/Streptomycin.
The cells were washed twice in ice cold PBS, pH 7.4, added 10 ml PBS and scraped off with a rubber policeman and transferred to a 50 ml vial on ice. Another 10 ml PBS were added to the flasks, scraped and combined with the first cells. The cells were centrifuged at 2000 rpm at 4° C. for 10 min. The supernatant was poured off and the pellet resuspended in 3 ml PBS. All pellets were combined into one tube, centrifuged as above and the final pellet frozen at −70° C. immediately.
The cell pellets were resuspended in ice-cold homogenization buffer (10 times the amount of cells, for example 2 g pellet to 20 ml homogenization buffer) containing 50 mM Tris-HCl, 5 mM MgCl2, 1 mM EGTA, pH7.4 and in addition protease inhibitors 10 ug/ml leupeptin, 10 ug/ml pepstatin, 200 ug/ml Bacitracin, 0.5 ug/ml aprotinin and 100 uM PMSF. […]
An experiment was set up in a 96-well plate. […] This filterspot was cut off and added a tube that finally was counted in a gamma-counter. […]

SMILES: C/C(=N\O)C(C)(C)NCCC(CCNC(=O)CCCC(=O)NCCCC[C@@H]1NC(=O)CSC[C@@H](C(=O)NCCOCCOCCOCCNC(=O)COCC(N)=O)NC(=O)[C@H](Cc2ccccc2)NC(=O)[C@@H]2CSSC[C@H](NC1=O)C(=O)N[C@@H](CCCNC(=N)N)C(=O)NCC(=O)N[C@@H](CC(=O)O)C(=O)N2)CCNC(C)(C)/C(C)=N/O (some centres unmarked) [Compound 8] ({CH2CO}-K([Glutaryl-X1])CRGDCFC-X2; disulfide 2-6; thioether N-8)
- Ki [1]: 6 nM
- Ki [2]: 56 nM
